{"source": "patent US4826994A", "about": "“Production of substituted 1,3,4,9-tetrahydropyrano(3,4-B)indole-1-acetic acids” (American Home Products Corporation, priority 1988, dated 1989)", "key": {"[1]": {"test": "Drug Effects on Phenylbenzoquinone-induced Writhing in Mice", "type": "in vivo, Male Swiss albino mice", "conditions": "Mus musculus, po; for ED50: value in parentheses, read-out: Phenylquinone Writhing in Mice, ED50", "description": "A further test used to determine the utility of the compounds of the present invention is designated: Drug Effects on Phenylbenzoquinone-induced Writhing in Mice\nThe objective of this test is to determine the ability of test drugs to inhibit the nociceptive (pain) response of mice injected with a chemical irritant. This test is a primary screen for both peripheral and centrally acting analgesic drugs.\nMale Swiss albino mice (15-25 g). The animals are fasted for 18 hours prior to use but have free access to water.\n(§1) Drug Preparation and Administration:\nDrugs are dissolved or suspended according to their solubility in 0.5% Tween 80 in distilled water. They are administered by gastric gavage in a volume of 5 mL/kg. For primary screening all drugs are administered at the arbitrary dosage of 25 mg/kg, p.o. to a group of 10 mice.\nA modification of the method of Siegmund et al, Proc. Soc. Exp. Biol. Med., 95, 729-731 (1957) is used. Groups of 5 mice are dosed with the test compound or vehicle control. Sixty minutes later the animals are injected i.p. with 0.3 mL/20 g body weight of a 0.02% solution of phenylbenzoquinone (PBQ; 2-phenyl-1,4-benzoquinone) and placed in individual observation boxes. The number of writhing or abdominal squirming movements made by each mouse during the following 15 min. period is counted. The experiment is repeated with another group of 5 mice and the mean number of writhes per mouse for a group of 10 mice is calculated.\nDrug treated and vehicle-treated control groups are compared and the percentage protection conferred by the drug is calculated: [formula] where c=mean number of writhes in the control group where t=mean number of writhes in the test drug group"}, "[2]": {"test": "Preventative Adjuvant Edema (acute anti-inflammatory effect in rats)", "type": "in vivo, Male Sprague Dawley rats", "set-up": "inhibition in vivo: dose or concentration left out as unconfirmed", "conditions": "for inhibition in vivo at 25 mg/kg / ED50 / inhibition in vivo: Rattus norvegicus, po, 72 h; for inhibition in vivo at 25 mg/kg / inhibition in vivo / Preventative Adjuvant Edema, percent inhibition: p.o.; for inhibition in vivo at 25 mg/kg / inhibition in vivo: read-out: Preventative Adjuvant Edema, percent inhibition; for ED50: value in parentheses; for inhibition in vivo at 25 mg/kg / Preventative Adjuvant Edema, percent inhibition: 25 mg/kg", "description": "This test is a primary screen for anti-inflammatory drugs.\nMale Sprague Dawley rats (180-200 g) are used. The animals have free access to water but food is withdrawn 18 hours before testing.\nDrug Preparations and Administration:\nFreund's complete adjuvant is prepared by suspending 5 mg of killed and dried Mycobacterium butyricum (Difco) in 1 mL mineral oil. The test compounds are dissolved, of suspended in 0.5% Tween 80 in distilled water according to their solubility. For primary screening all drugs are administered by gastric lavage at the arbitrary dosage of 25 mg/kg, p.o. in a volume of 0.5 mL/100 g body weight to groups of 10 animals.\nThe method is essentially that described by Wax et al, J. Pharmacol. Exp. Ther., 192, 166-171 (1975). Groups of rats are injected intradermally in the left hind paw with 0.1 mL of Freund's complete adjuvant. The test compound or vehicle is administered immediately before the adjuvant, 24 hours and 48 hours after the adjuvant (days 0, 1 and 2). The injected hind paw volume is measured before the injection of adjuvant and 24 hrs. after the last drug administration (day 3) by means of a plethysmometer (Buxco Electronics Inc.). The difference between the hind paw volume on day 0 and day 3 represents the edema volume. Etodolac (25 mg/kg, p.o.) is included as a positive control.\nThe mean edema volume (expressed as mL±SEM) is calculated for each group and the percentage protection conferred by the drug is calculated: [formula] where c is the mean edema volume for the vehicle-treated (0.5% Tween 80 in distilled water) controls and t is the mean edema volume for the drug treated group."}, "[3]": {"test": "Randall Selitto Test in the Rat (pain threshold in inflamed paw)", "type": "in vivo, Male Sprague Dawley rats", "conditions": "rats; for ED50: Rattus norvegicus, po, 1 hour after dosing, value in parentheses, read-out: Randall Selitto Test in the Rat, ED50 (dose which causes analgesia in 50% of the animals)", "excerpt": "An additional test used to determine the utility of the compounds of the present invention is designated: Randall Selitto Test in the Rat\nThe objective of this test is to assess the potency of peripheral and central acting drugs in inhibiting the reaction of rats to painful stimulation applied to an inflamed paw.\nMale Sprague Dawley rats (180-200 g) are used. The animals are fasted overnight prior to drug administration.\nas §1\nFreund's Complete Adjuvant (FCA) is prepared by suspending 5 mg killed and dried mycobacterium butyricum (Difco) in 1 mL mineral oil. The test compounds are dissolved or suspended in 0.5% Tween 80 in distilled water according to their solubility. They are administered by gastric gavage in a volume of 0.5 mL/100 g body weight to groups of 10 animals.\nTen rats are used per group. The method is essentially that described by Randall and Selitto, Arch. Int. Pharmacodyn. 111, 409 (1957) and the apparatus which is used to apply pressure to the paw (Analgesi-meter for the rat paw, Ugo Basile, Comeria, Italy) is a modification of that described by Gilfoil et al, J. Pharmacol. 142, 1 (1963). The instrument is basically a device which exerts a force that increases at a constant rate. The force is continuously monitored by a pointer moving along a linear scale and is measured in grams. The inflammatory reaction is induced in the left hind paw of rats of injecting 0.1 mL of Freund's adjuvant intradermally. The test compound or vehicle is administered 24 hours after the adjuvant. The pain threshold (vocalization) is determined 1 hour later in the inflamed paw of the treated and control groups.\nPresentation of Results and Criteria for Activity:\nEach animal which has a reading 1.5 times greater than the mean reading of the control-group will be considered as responsive (having an analgesic effect) to treatment. The number of animals showing an analgesic effect is then determined in each group.\nThe ED50 (dose which causes analgesia in 50% of the animals) using at least 3 doses is then determined, by the method described in Litchfield and Wilcoxon, J. Pharmacol. Exp. Ther., 96, 99-113 (1949)."}, "[4]": {"test": "Drug Effects on Phenylbenzoquinone-induced Writhing in Mice", "type": "in vivo, Male Swiss albino mice", "conditions": "Mus musculus, po, Tested at 10 mg/kg, p.o., read-out: Phenylquinone Writhing in Mice, percent inhibition"}}}
{"molecule": "CCC1(CC(=O)O)OCC(Cc2ccccc2)c2c1[nH]c1c(C)c(Cl)ccc21", "note": "(single isomer, unassigned) [Example 19, 7-chloro-1-ethyl-1,3,4,9-tetrahydro-8-methyl-4-(phenylmethyl)-pyrano[3,4-b]indole-1-acetic acid]", "values": [{"measurement": "ED50", "setting": "[1]", "value": 3.3, "unit": "mg/kg"}, {"measurement": "inhibition in vivo at 25 mg/kg", "setting": "[2]", "value": 52, "unit": "%"}, {"measurement": "ED50", "setting": "[3]", "value": 1.6, "unit": "mg/kg"}]}
{"molecule": "C=CCC1COC(CC)(CC(=O)O)c2[nH]c3c(CC)c(F)ccc3c21", "note": "(single isomer, unassigned) [Example 10]", "values": [{"measurement": "ED50", "setting": "[1]", "value": 7, "unit": "mg/kg"}, {"measurement": "ED50", "setting": "[2]", "value": 7.8, "unit": "mg/kg"}, {"measurement": "Randall Selitto Test in the Rat, percent inhibition", "setting": "[3]; Tested at 5 mg/kg, p.o.", "value": 60, "unit": "%"}]}
{"molecule": "C=CCC1COC(CC)(CC(=O)O)c2[nH]c3c(CCC)cccc3c21", "note": "(single isomer, unassigned) [Example 12, 1-ethyl-1,3,4,9-tetrahydro-4-(2-propenyl)-8-propyl-pyrano[3,4-b]indole-1-acetic acid]", "values": [{"measurement": "ED50", "setting": "[1]", "value": 9.5, "unit": "mg/kg"}, {"measurement": "inhibition in vivo", "setting": "[2]", "value": 32, "unit": "%"}, {"measurement": "ED50", "setting": "[3]", "value": 1, "unit": "mg/kg"}]}
{"molecule": "CCC1(CC(=O)O)OCC(Cc2ccc(F)cc2F)c2c1[nH]c1ccccc21", "note": "(single isomer, unassigned) [Example 45]", "values": [{"measurement": "inhibition in vivo at 10 mg/kg", "setting": "[4]", "value": 29, "unit": "%"}, {"measurement": "inhibition in vivo", "setting": "[2]", "value": 45, "unit": "%"}]}
{"molecule": "C=CCC1COC(CC)(CC(=O)O)c2[nH]c3c(C)c(Cl)ccc3c21", "note": "(single isomer, unassigned) [Example 16, 7-chloro-1-ethyl-1,3,4,9-tetrahydro-8-methyl-4-(2-propenyl)-pyrano[3,4-b]indole-1-acetic acid]", "values": [{"measurement": "ED50", "setting": "[1]", "value": 5.5, "unit": "mg/kg"}, {"measurement": "ED50", "setting": "[2]", "value": 3, "unit": "mg/kg"}, {"measurement": "ED50", "setting": "[3]", "value": 0.012, "unit": "mg/kg"}]}
{"molecule": "CCC1(CC(=O)O)OCC(Cc2ccccc2)c2c1[nH]c1c(Cl)c(Cl)ccc21", "note": "(single isomer, unassigned) [Example 18, 7,8-dichloro-1-ethyl-1,3,4,9-tetrahydro-4-(phenylmethyl)-pyrano[3,4-b]indole-1-acetic acid]", "values": [{"measurement": "ED50", "setting": "[1]", "value": 3.2, "unit": "mg/kg"}, {"measurement": "inhibition in vivo at 25 mg/kg", "setting": "[2]", "value": 15, "unit": "%"}, {"measurement": "ED50", "setting": "[3]", "value": 0.8, "unit": "mg/kg"}]}
{"molecule": "CCc1cccc2c3c([nH]c12)C(CC)(CC(=O)O)OCC3Cc1ccccc1", "note": "(single isomer, unassigned) [Example 4, 1,8-Diethyl-1,3,4,9-tetrahydro-4-(phenylmethyl)-pyrano[3,4-b]indole-1-acetic Acid]", "values": [{"measurement": "inhibition in vivo at 25 mg/kg", "setting": "[1]; 25 mg/kg, p.o., read-out: Phenylquinone Writhing in Mice, percent inhibition", "value": 86, "unit": "%"}, {"measurement": "Preventative Adjuvant Edema, percent inhibition", "setting": "[2]", "value": 15, "unit": "%"}, {"measurement": "ED50", "setting": "[3]", "value": 0.5, "unit": "mg/kg"}]}
{"molecule": "CCC1(CC(=O)O)OCC(Cc2ccc(Cl)cc2)c2c1[nH]c1ccccc21", "note": "(single isomer, unassigned) [Example 42]", "values": [{"measurement": "inhibition in vivo at 10 mg/kg", "setting": "[4]", "value": 24, "unit": "%"}, {"measurement": "inhibition in vivo", "setting": "[2]", "value": 18, "unit": "%"}]}
{"molecule": "CCC1(CC(=O)O)OCC(Cc2ccccc2)c2c1[nH]c1c(C)cccc21", "note": "(single isomer, unassigned) [Example 22, 1-ethyl-1,3,4,9-tetrahydro-8-methyl-4-(phenylmethyl)-pyrano[3,4-b]indole-1-acetic acid]", "values": [{"measurement": "ED50", "setting": "[1]", "value": 4.7, "unit": "mg/kg"}, {"measurement": "Preventative Adjuvant Edema, percent inhibition", "setting": "[2]", "value": 47, "unit": "%"}, {"measurement": "ED50", "setting": "[3]", "value": 0.25, "unit": "mg/kg"}]}
{"molecule": "CCC1(CC(=O)O)OCC(Cc2cccc(C(F)(F)F)c2)c2c1[nH]c1ccccc21", "note": "(single isomer, unassigned) [Example 44]", "values": [{"measurement": "inhibition in vivo at 10 mg/kg", "setting": "[4]", "value": 22, "unit": "%"}, {"measurement": "inhibition in vivo", "setting": "[2]", "value": 25, "unit": "%"}]}
{"molecule": "CCC1(CC(=O)O)OCC(Cc2ccc(F)cc2)c2c1[nH]c1ccccc21", "note": "(single isomer, unassigned) [Example 43]", "values": [{"measurement": "inhibition in vivo at 10 mg/kg", "setting": "[4]", "value": 47, "unit": "%"}, {"measurement": "inhibition in vivo", "setting": "[2]", "value": 25, "unit": "%"}]}
